# Laboratory results as given in US20250134861A1, “COMPOSITIONS COMPRISING 5-METHOXY-N,N-DIMETHYLTRYPTAMINE (5-MEO-DMT) FOR USE IN TREATING MENTAL DISORDERS” (GH RESEARCH IRELAND LIMITED, priority 2019, published 2025).
# Test system: patients with treatment-resistant major depressive disorder
# Experiment: Clinical trial of inhaled 5-MeO-DMT in TRD patients: depression severity and psychiatric symptom scales
# [1] = Patient 1, 2 h after single 12 mg inhaled dose, baseline 1
# [2] = Patient 1, 2 h after single 12 mg inhaled dose, baseline 5
# [3] = Patient 1, 1 d after single 12 mg inhaled dose, baseline 1
# [4] = Patient 1, 1 d after single 12 mg inhaled dose, baseline 5
# [5] = Patient 1, 7 d after single 12 mg inhaled dose, baseline 1
# [6] = Patient 1, 7 d after single 12 mg inhaled dose, baseline 5
# [7] = Patient 2, 2 h after single 12 mg inhaled dose, baseline 5
# [8] = Patient 2, 1 d after single 12 mg inhaled dose, baseline 5
# [9] = Patient 2, 7 d after single 12 mg inhaled dose, baseline 5
# [10] = both patients, after single 12 mg inhaled dose
# [11] = both patients, all assessment time points (2 h, 1 d, 7 d) after single 12 mg inhaled dose
# [12] = both patients, single 12 mg inhaled dose
smiles,measurement,setting,value
"COc1ccc2[nH]cc(CCN(C)C)c2c1 [5-MeO-DMT, 5-methoxy-N,N-dimethyltryptamine]","PGI-I (7-point scale; 1, Very much improved; 2, Much improved; 7, Very much worse)","Patient 1, 2 h after single 12 mg inhaled dose",1
same,BPRS Unusual thought content (1-7),[1],1
same,MADRS suicidal thoughts item (0 to 6),[1],0
same,BPRS Somatic concern (1-7),"Patient 1, 2 h after single 12 mg inhaled dose, baseline 3",2
same,BPRS Tension (1-7),"Patient 1, 2 h after single 12 mg inhaled dose, baseline 4",3
same,BPRS Guilt feelings (1-7),[2],1
same,"PGI-S (7-point scale; 1, Normal, not at all ill; 7, Extremely ill)",[2],1
same,BPRS Depressive Mood (1-7),"Patient 1, 2 h after single 12 mg inhaled dose, baseline 6",2
same,BPRS Anxiety (1-7),"Patient 1, 2 h after single 12 mg inhaled dose, baseline 7",2
same,MADRS (overall score 0 to 60),"Patient 1, 2 h after single 12 mg inhaled dose, baseline 31, sleep item carried forward from baseline",10
same,"BPRS (total, 18 symptoms each rated 1-7)","Patient 1, 2 h after single 12 mg inhaled dose, baseline 42",27
same,C-SSRS Suicidal Ideation (any of the suicidal ideation items present),"Patient 1, 2 h after single 12 mg inhaled dose, baseline Yes",No
same,"PGI-I (7-point scale; 1, Very much improved; 2, Much improved; 7, Very much worse)","Patient 1, 1 d after single 12 mg inhaled dose",1
same,BPRS Unusual thought content (1-7),[3],1
same,MADRS suicidal thoughts item (0 to 6),[3],0
same,BPRS Somatic concern (1-7),"Patient 1, 1 d after single 12 mg inhaled dose, baseline 3",1
same,BPRS Tension (1-7),"Patient 1, 1 d after single 12 mg inhaled dose, baseline 4",1
same,BPRS Guilt feelings (1-7),[4],1
same,"PGI-S (7-point scale; 1, Normal, not at all ill; 7, Extremely ill)",[4],1
same,BPRS Depressive Mood (1-7),"Patient 1, 1 d after single 12 mg inhaled dose, baseline 6",1
same,BPRS Anxiety (1-7),"Patient 1, 1 d after single 12 mg inhaled dose, baseline 7",1
same,MADRS (overall score 0 to 60),"Patient 1, 1 d after single 12 mg inhaled dose, baseline 31",8
same,"BPRS (total, 18 symptoms each rated 1-7)","Patient 1, 1 d after single 12 mg inhaled dose, baseline 42",18
same,C-SSRS Suicidal Ideation (any of the suicidal ideation items present),"Patient 1, 1 d after single 12 mg inhaled dose, baseline Yes",No
same,"PGI-I (7-point scale; 1, Very much improved; 2, Much improved; 7, Very much worse)","Patient 1, 7 d after single 12 mg inhaled dose",1
same,BPRS Unusual thought content (1-7),[5],1
same,MADRS suicidal thoughts item (0 to 6),[5],0
same,BPRS Somatic concern (1-7),"Patient 1, 7 d after single 12 mg inhaled dose, baseline 3",1
same,BPRS Tension (1-7),"Patient 1, 7 d after single 12 mg inhaled dose, baseline 4",1
same,BPRS Guilt feelings (1-7),[6],1
same,"PGI-S (7-point scale; 1, Normal, not at all ill; 7, Extremely ill)",[6],1
same,BPRS Depressive Mood (1-7),"Patient 1, 7 d after single 12 mg inhaled dose, baseline 6",1
same,BPRS Anxiety (1-7),"Patient 1, 7 d after single 12 mg inhaled dose, baseline 7",1
same,MADRS (overall score 0 to 60),"Patient 1, 7 d after single 12 mg inhaled dose, baseline 31",3
same,"BPRS (total, 18 symptoms each rated 1-7)","Patient 1, 7 d after single 12 mg inhaled dose, baseline 42",18
same,C-SSRS Suicidal Ideation (any of the suicidal ideation items present),"Patient 1, 7 d after single 12 mg inhaled dose, baseline Yes",No
same,"PGI-I (7-point scale; 1, Very much improved; 2, Much improved; 7, Very much worse)","Patient 2, 2 h after single 12 mg inhaled dose",2
same,MADRS suicidal thoughts item (0 to 6),"Patient 2, 2 h after single 12 mg inhaled dose, baseline 1",0
same,BPRS Tension (1-7),"Patient 2, 2 h after single 12 mg inhaled dose, baseline 3",1
same,BPRS Somatic concern (1-7),"Patient 2, 2 h after single 12 mg inhaled dose, baseline 4",1
same,BPRS Anxiety (1-7),[7],2
same,BPRS Depressive Mood (1-7),[7],3
same,BPRS Guilt feelings (1-7),[7],1
same,"PGI-S (7-point scale; 1, Normal, not at all ill; 7, Extremely ill)",[7],1
same,BPRS Unusual thought content (1-7),"Patient 2, 2 h after single 12 mg inhaled dose, baseline 6",1
same,MADRS (overall score 0 to 60),"Patient 2, 2 h after single 12 mg inhaled dose, baseline 33, sleep item carried forward from baseline",9
same,"BPRS (total, 18 symptoms each rated 1-7)","Patient 2, 2 h after single 12 mg inhaled dose, baseline 45",26
same,C-SSRS Suicidal Ideation (any of the suicidal ideation items present),"Patient 2, 2 h after single 12 mg inhaled dose, baseline No",No
same,"PGI-I (7-point scale; 1, Very much improved; 2, Much improved; 7, Very much worse)","Patient 2, 1 d after single 12 mg inhaled dose",2
same,MADRS suicidal thoughts item (0 to 6),"Patient 2, 1 d after single 12 mg inhaled dose, baseline 1",1
same,BPRS Tension (1-7),"Patient 2, 1 d after single 12 mg inhaled dose, baseline 3",1
same,BPRS Somatic concern (1-7),"Patient 2, 1 d after single 12 mg inhaled dose, baseline 4",1
same,BPRS Anxiety (1-7),[8],1
same,BPRS Depressive Mood (1-7),[8],1
same,BPRS Guilt feelings (1-7),[8],1
same,"PGI-S (7-point scale; 1, Normal, not at all ill; 7, Extremely ill)",[8],1
same,BPRS Unusual thought content (1-7),"Patient 2, 1 d after single 12 mg inhaled dose, baseline 6",1
same,MADRS (overall score 0 to 60),"Patient 2, 1 d after single 12 mg inhaled dose, baseline 33",5
same,"BPRS (total, 18 symptoms each rated 1-7)","Patient 2, 1 d after single 12 mg inhaled dose, baseline 45",19
same,C-SSRS Suicidal Ideation (any of the suicidal ideation items present),"Patient 2, 1 d after single 12 mg inhaled dose, baseline No",No
same,"PGI-I (7-point scale; 1, Very much improved; 2, Much improved; 7, Very much worse)","Patient 2, 7 d after single 12 mg inhaled dose",2
same,MADRS suicidal thoughts item (0 to 6),"Patient 2, 7 d after single 12 mg inhaled dose, baseline 1",0
same,BPRS Tension (1-7),"Patient 2, 7 d after single 12 mg inhaled dose, baseline 3",1
same,BPRS Somatic concern (1-7),"Patient 2, 7 d after single 12 mg inhaled dose, baseline 4",1
same,BPRS Anxiety (1-7),[9],1
same,BPRS Depressive Mood (1-7),[9],1
same,BPRS Guilt feelings (1-7),[9],1
same,"PGI-S (7-point scale; 1, Normal, not at all ill; 7, Extremely ill)",[9],1
same,BPRS Unusual thought content (1-7),"Patient 2, 7 d after single 12 mg inhaled dose, baseline 6",1
same,MADRS (overall score 0 to 60),"Patient 2, 7 d after single 12 mg inhaled dose, baseline 33",5
same,"BPRS (total, 18 symptoms each rated 1-7)","Patient 2, 7 d after single 12 mg inhaled dose, baseline 45",18
same,C-SSRS Suicidal Ideation (any of the suicidal ideation items present),"Patient 2, 7 d after single 12 mg inhaled dose, baseline No",No
same,"Other general psychiatric symptoms assessed by the BPRS (somatic concern, anxiety, guilt, tension)",[10],improved
same,"Ratings for suicidality (suicidal thoughts item of the MADRS, C-SSRS Suicidal Ideation items)",[10],improved
same,MADRS remission (MADRS total score equal or less than 10),[11],fulfilled standard criteria
same,MADRS response (at least 50% improvement from baseline),[11],fulfilled standard criteria
same,Time to clinical remission after a single administration,[12],≤ 2 h
same,Time to clinical response after administration,[12],≤ 2 h
